Data published in publication PMC8800111 (The Journal of Biological Chemistry, 2021).

Key:
DHFR [1] = biological target: T1, DHFR (Homo sapiens, UniProt P00374); experiment: Cellular thermal shift assay (CETSA) in intact U3A cells; type: cell-based; details: 10 μM, 10 min
T1 sequence (P00374 1-187): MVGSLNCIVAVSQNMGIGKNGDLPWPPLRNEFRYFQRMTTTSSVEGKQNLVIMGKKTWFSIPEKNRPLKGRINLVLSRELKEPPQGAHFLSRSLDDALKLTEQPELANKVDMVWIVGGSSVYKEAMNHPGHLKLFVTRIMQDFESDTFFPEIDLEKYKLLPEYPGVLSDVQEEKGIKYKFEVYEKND
Experimental: (§1) Protein abundance was measured by immunoblotting and band quantification.
(§2) U3A cells were cultured in DMEM (Thermo Fisher Scientific) with 10% heat-inactivated fetal bovine serum and 1% penicillin/streptomycin. […] Cells were washed once with PBS, harvested using trypsin, and centrifuged at 300g. The pellet was resuspended in Tris-buffered saline (TBS) supplemented with cOmplete protease inhibitor cocktail (Roche), aliquoted (50 μl; 8 × 10^5 cells per temperature) into PCR strip tubes, and heated at the indicated temperature in a Veriti Thermal Cycler (Applied Biosystems) for 3 min, then cooled for another 3 min at room temperature. Cells were then lysed by freeze–thawing three times with 3-min incubations in an ethanol/dry ice bath and a water bath at 37 °C. The lysates were then centrifuged at 17,000g for 20 min at 4 °C to remove cellular debris and pelleted protein aggregates. Supernatants (40 μl) were transferred to new tubes and prepared for immunoblotting. […] Briefly, U3A cells in exponential growth rate were collected, resuspended in TBS supplemented with cOmplete protease inhibitor cocktail (Roche), lysed by freeze–thaw cycle, and centrifuged at 17,000g for 20 min at 4 °C. […] Band intensities were quantified using Fiji ([42]) and then plotted and fitted in GraphPad Prism (GraphPad Software, Inc) to obtain apparent Tagg values.

[2] = system: STAT3 target genes in SKBR3 cells; experiment: STAT3 target gene expression by qRT-PCR in SKBR3 cells; type: cell-based, human; details: 10 μM 1 h, OSM 60 min
Experimental: Cells were stimulated with 10 ng/ml interleukin 6 (Peprotech) or 10 ng/ml OSM (Peprotech). Cells were stimulated for 15 min for whole cell lysate immunoblotting, 60 to 90 min for qRT–PCR, and 5 to 6 h for luciferase reporter assays.
Total RNA was extracted from cells using the RNeasy Mini Kit (Qiagen). Complementary DNA was generated using the TaqMan Reverse Transcription Reagents (Invitrogen). qPCR was performed in triplicate or quadruplicate using the Power SYBR Green PCR Master Mix (Invitrogen) on a 7500 Real-Time PCR System (Applied Biosystems) or a QuantStudio 6 Flex Real-Time PCR System (Applied Biosystems). Specificity of amplification was confirmed by melting curve analysis. Cycle threshold (CT) values for target genes were normalized to the endogenous reference gene GAPDH. Primer sequences (Table S3) were designed from the University of California Santa Cruz genome browser reference mRNA sequences using Primer3 ([43]).

DHFR [3] = biological target: T1, DHFR; experiment: Cellular thermal shift assay (CETSA) in U3A cell lysate; type: binding; details: 10 μM, 10 min
Experimental: as §1, §2

[4] = system: STAT3 DNA binding in SKBR3 cells; experiment: Chromatin immunoprecipitation, STAT3 binding at target genes; type: cell-based, human; details: 10 μM 1 h, 10 ng/ml LIF 30 min
Experimental: Binding at the indicated target genes was assessed by quantitative RT–PCR. Data are expressed as percent of input.
Nuclei were centrifuged at 660g for 5 min at 4 °C and lysed in 300 μl of nuclear lysis buffer (50 mM Tris [pH 8.1], 10 mM EDTA, 1% SDS, and phosphatase and protease inhibitors). […] Lysate was then added to 60 μl of Protein A/G PLUS agarose beads (catalog no.: 2003; Santa Cruz Biotechnology) and rotated for 4 to 6 h at 4 °C. […] Beads were resuspended in 150 μl elution buffer (100 mM sodium bicarbonate and 1% SDS) and incubated overnight at 65 °C. DNA was purified using a PCR Purification Kit (Qiagen) according to the manufacturer's protocol. qPCR was performed using the indicated primers (Table S3). Results were normalized to input.

## CCc1nc(N)nc(N)c1-c1ccc(Cl)cc1 [pyrimethamine]
DHFR [1]
  DHFR aggregation temperature (Tagg) in the presence of drug: 50.6 °C
[2]
  OSM-stimulated BCL6 expression: significantly reduced
DHFR [3]
  DHFR aggregation temperature (Tagg) in the presence of drug: ~53.2 °C
[4]
  LIF-stimulated STAT3 binding at BCL6: minimal reduction
